Literature values in patent US6515198B2, “Use of purinergic receptor modulators and related reagents” (Syntex (U.S.A.) LLC, priority 2000, dated 2003).

System: bladder sensory afferents
Details: agents capable of desensitizing P2X3 receptor subunit responses

SMILES | effect on the activity of bladder sensory afferents
Cc1ccc(C(=O)Nc2ccc(S(=O)(=O)O)c3cc(S(=O)(=O)O)cc(S(=O)(=O)O)c23)cc1NC(=O)c1cccc(NC(=O)Nc2cccc(C(=O)Nc3cc(C(=O)Nc4ccc(S(=O)(=O)O)c5cc(S(=O)(=O)O)cc(S(=O)(=O)O)c45)ccc3C)c2)c1 [suramin] | decrease the activity of bladder sensory afferents
Nc1ncnc2c1ncn2[C@@H]1O[C@H](COP(=O)(O)CP(=O)(O)OP(=O)(O)O)[C@@H](O)[C@H]1O [αβ-ATP] | decrease the activity of bladder sensory afferents
